Reference: patent publication US20210128736A1, “STEREOCOMPLEX OF OLIGOLACTIC ACID CONJUGATES IN MICELLES FOR IMPROVED PHYSICAL STABILITY AND ENHANCED ANTITUMOR EFFICACY” (Wisconsin Alumni Research Foundation, priority 2018, published 2021)

Assays:
[1] = Stability in rat plasma at 37° C. (RP-HPLC); settings: 24 hours
[2] = mice, reported; cited from earlier work
[3] = test system: subcutaneous tumors; settings: cited from earlier work
[4] = test system: A549 non-small cell lung cancer xenograft; assay: In vivo antitumor efficacy in A549 xenograft model; parameters: species or system female athymic nude mice; settings: 3-weekly I.V. injections at 10 mg/kg equivalent of GEM; micelles 5% loading; vs saline control
Method: In vivo antitumor efficacy studies. […] 6-8 week-old female athymic nude mice (20-25 g each) were acquired from laboratory animal resources at School of Medicine and Public Health, University of Wisconsin-Madison. Mice were housed in ventilated cages with free access to water and food and acclimated for 1 week prior tumor cell injection. A549 cells (2×10^6 cells in 100 μL of serum-free RPMI 1640 medium) were harvested from sub-confluent cultures after trypsinization and were injected subcutaneously into the right flank of each mouse. […] Drugs were administered via tail vein for 3 weekly injections. Body weight and tumor volume were monitored over the course of study. Tumor volume was calculated using the formula: V=(a×b^2)/2, where V is tumor volume, a is tumor length, b is tumor width.

[5] = test system: PANC-1 pancreatic cancer cells; assay: In vitro cytotoxicity, CellTiter-Blue Cell Viability Assay, PANC-1; assay type: cell-based; settings: Homo sapiens; PANC-1 cells, 72 hours incubation; micelles at 15% loading
Method: (§1) In vitro cytotoxicity studies. […] A549 cells were seeded into a 96-well plate at a seeding density of 1,500 cells/100 μL/well and cultured in RPMI 1640 medium, or PANC-1 cells were seeded into a 96-well plate at a seeding density of 5,000 cells/100 μL/well and cultured in Dulbecco Modified Eagle Medium (DMEM), at 37° C. in 5% CO2 incubator for 24 h. […] Cells cultured with diluted PBS in medium was used as controls. Drug treated cells were placed in an incubator at 5% CO2 at 37° C. for 72 h. The medium in each well was aspirated, and 100 μL of 20% (v/v) CellTiter-Blue reagent in serum free RPMI 1640 or DMEM was added, followed by incubation at 37° C. in 5% CO2 atmosphere for 1.5 h. Fluorescence intensity was measured by a SpectraMax M2 plate reader (Molecular Devices, San Jose, Calif.) with excitation and emission at 560 and 590 nm, respectively. The half maximal inhibitory drug concentration (IC50) was determined by using GraphPad Prism version 5.00 for Windows (GraphPad Software, La Jolla, Calif.).

[6] = test system: human A549 non-small lung cancer cells; assay: In vitro cytotoxicity, CellTiter-Blue Cell Viability Assay, A549; assay type: cell-based; settings: 72 hours incubation, micelles at 15% loading
Method: as §1

SMILES: Nc1ccn([C@@H]2O[C@H](CO)[C@@H](O)C2(F)F)c(=O)n1 [GEM, Gemcitabine]
- intact GEM detected after incubation in plasma [1]: less than 50%
- maximum tolerated doses (MTD) [2]: 100 mg/kg
- dose required to inhibit tumor growth ([3]; mice bearing subcutaneous tumors): 100 mg/kg
- efficacy against subcutaneous tumors ([3]; mice, GEM at 10 mg/kg): generally ineffective
- antitumor efficacy (tumor growth, relative tumor volume) [4]: not effective
- IC50 [5]: ~9.2 µM
- IC50 [6]: ~1.1 µM
